The record followed here is ChEMBL document CHEMBL1250518, “Nonsteroidal dissociated glucocorticoid agonists containing azaindoles as steroid A-ring mimetics” (J Med Chem, 2010).

The target in the assay is T1, Mineralocorticoid receptor (Homo sapiens, UniProt P08235).
T1 sequence (P08235 whole entry): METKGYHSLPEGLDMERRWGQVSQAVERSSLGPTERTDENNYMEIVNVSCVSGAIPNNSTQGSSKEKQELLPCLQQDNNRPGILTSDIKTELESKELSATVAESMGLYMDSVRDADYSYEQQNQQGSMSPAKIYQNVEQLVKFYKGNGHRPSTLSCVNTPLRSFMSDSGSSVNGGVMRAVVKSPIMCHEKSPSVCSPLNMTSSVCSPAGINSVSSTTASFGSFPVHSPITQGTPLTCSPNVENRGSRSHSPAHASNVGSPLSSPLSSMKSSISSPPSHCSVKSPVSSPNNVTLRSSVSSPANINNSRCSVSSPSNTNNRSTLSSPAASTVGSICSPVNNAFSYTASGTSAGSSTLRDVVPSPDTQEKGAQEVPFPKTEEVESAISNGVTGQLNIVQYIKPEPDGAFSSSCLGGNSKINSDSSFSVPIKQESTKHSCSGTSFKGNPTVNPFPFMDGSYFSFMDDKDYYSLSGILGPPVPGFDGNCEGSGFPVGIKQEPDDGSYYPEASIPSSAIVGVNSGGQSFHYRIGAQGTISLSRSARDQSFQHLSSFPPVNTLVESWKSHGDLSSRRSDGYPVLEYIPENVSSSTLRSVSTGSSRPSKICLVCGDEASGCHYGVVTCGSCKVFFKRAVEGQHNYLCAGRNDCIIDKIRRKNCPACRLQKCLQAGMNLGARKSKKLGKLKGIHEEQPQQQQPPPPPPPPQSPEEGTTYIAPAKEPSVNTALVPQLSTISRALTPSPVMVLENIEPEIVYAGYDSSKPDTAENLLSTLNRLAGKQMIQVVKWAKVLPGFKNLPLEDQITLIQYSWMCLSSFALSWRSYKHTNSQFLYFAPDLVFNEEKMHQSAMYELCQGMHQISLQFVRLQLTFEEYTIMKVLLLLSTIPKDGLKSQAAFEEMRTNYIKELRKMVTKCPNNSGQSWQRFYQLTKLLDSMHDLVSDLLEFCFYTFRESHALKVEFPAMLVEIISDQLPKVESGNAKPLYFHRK
In words: Binding affinity to mineralocorticoid receptor expressed in baculovirus-infected insect cells using tetramethylrhodamine labeled Dexamethasone by fluorescence polarization microplate assay. In general terms: Fluorescence polarisation rises when a labelled molecule tumbles more slowly, as on binding a larger partner.

Compound `CC(C)(C[C@@](O)(Cc1cc2ccncc2[nH]1)C(F)(F)F)c1cc(F)ccc1O` came in with an IC50 of 210 nM.

A word on the IC50: it is the point on the concentration scale where inhibition reaches its midpoint. Lower therefore signals inhibition by little substance.
